Test system: 521955-158-R2-J5-PDC complex spheroid viability
Assay: Anticancer human tumor 521955-158-R2-J5-PDC patient-derived pancreatic carcinoma cell line growth inhibition [GQUAD]
Settings: for IC50: curve of first compound; for viability, T/C: stronger effect = lower value
In short: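 Multi-cell-type spheroids of tumor cells with HUVEC and mesenchymal stem cells, treated with drug combinations. Concentrations descend in half-log steps from near clinical Cmax, or from 10 microM where Cmax is unknown; viability read-out.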

[1] = second compound 0.0316 µM, first compound 0.0316 µM
[2] = second compound 0.0316 µM, first compound 0.316 µM
[3] = second compound 0.1 µM, first compound 0.0316 µM
[4] = second compound 0.1 µM, first compound 0.316 µM
[5] = second compound 0.316 µM, first compound 0.0316 µM
[6] = second compound 0.316 µM, first compound 0.316 µM
[7] = second compound 1 µM, first compound 0.0316 µM
[8] = second compound 1 µM, first compound 0.316 µM
[9] = second compound 3.16 µM, first compound 0.0316 µM
[10] = second compound 3.16 µM, first compound 0.316 µM
[11] = second compound 10 µM, first compound 0.0316 µM
[12] = second compound 10 µM, first compound 0.316 µM
[13] = second compound 0.0316 µM, first compound 0.000999 µM
[14] = second compound 0.0316 µM, first compound 0.00316 µM
[15] = second compound 0.0316 µM, first compound 0.00999 µM
[16] = second compound 0.0316 µM, first compound 0.0999 µM
[17] = second compound 0.1 µM, first compound 0.000999 µM
[18] = second compound 0.1 µM, first compound 0.00316 µM
[19] = second compound 0.1 µM, first compound 0.00999 µM
[20] = second compound 0.1 µM, first compound 0.0999 µM
[21] = second compound 0.316 µM, first compound 0.000999 µM
[22] = second compound 0.316 µM, first compound 0.00316 µM
[23] = second compound 0.316 µM, first compound 0.00999 µM
[24] = second compound 0.316 µM, first compound 0.0999 µM
[25] = second compound 1 µM, first compound 0.000999 µM
[26] = second compound 1 µM, first compound 0.00316 µM
[27] = second compound 1 µM, first compound 0.00999 µM
[28] = second compound 1 µM, first compound 0.0999 µM
[29] = second compound 3.16 µM, first compound 0.000999 µM
[30] = second compound 3.16 µM, first compound 0.00316 µM
[31] = second compound 3.16 µM, first compound 0.00999 µM
[32] = second compound 3.16 µM, first compound 0.0999 µM
[33] = second compound 10 µM, first compound 0.000999 µM
[34] = second compound 10 µM, first compound 0.00316 µM
[35] = second compound 10 µM, first compound 0.00999 µM
[36] = second compound 10 µM, first compound 0.0999 µM
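Also: spheroids exposed to agents for one week before reading.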
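For viability, T/C in this document: 100% = DMSO vehicle control viability.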

Structure (SMILES): C=CC(=O)N1CCN(c2nc(=O)n(-c3c(C)ccnc3C(C)C)c3nc(-c4c(O)cccc4F)c(F)cc23)C(C)C1 (stereo unspecified) + CN(C)c1ccc(Nc2c3ccc(NC(=O)CCN4CCCC4)cc3nc3cc(NC(=O)CCN4CCCC4)ccc23)cc1
- IC50 (second compound 0.0316 µM): > 10000 nM
- IC50 (second compound 0.1 µM): > 10000 nM
- IC50 (second compound 0.316 µM): > 10000 nM
- IC50 (second compound 1 µM): > 10000 nM
- IC50 (second compound 3.16 µM): > 10000 nM
- IC50 (second compound 10 µM): > 10000 nM
- viability, T/C [1]: 103%
- viability, T/C (second compound 0.0316 µM, first compound 0.1 µM): 94.1%
- viability, T/C [2]: 105%
- viability, T/C (second compound 0.0316 µM, first compound 1 µM): 96.8%
- viability, T/C (second compound 0.0316 µM, first compound 3.16 µM): 108%
- viability, T/C (second compound 0.0316 µM, first compound 10 µM): 101%
- viability, T/C [3]: 98.2%
- viability, T/C (second compound 0.1 µM, first compound 0.1 µM): 105%
- viability, T/C [4]: 119%
- viability, T/C (second compound 0.1 µM, first compound 1 µM): 111%
- viability, T/C (second compound 0.1 µM, first compound 3.16 µM): 122%
- viability, T/C (second compound 0.1 µM, first compound 10 µM): 93.3%
- viability, T/C [5]: 91.7%
- viability, T/C (second compound 0.316 µM, first compound 0.1 µM): 90.4%
- viability, T/C [6]: 101%
- viability, T/C (second compound 0.316 µM, first compound 1 µM): 114%
- viability, T/C (second compound 0.316 µM, first compound 3.16 µM): 101%
- viability, T/C (second compound 0.316 µM, first compound 10 µM): 95.3%
- viability, T/C [7]: 90.3%
- viability, T/C (second compound 1 µM, first compound 0.1 µM): 84.5%
- viability, T/C [8]: 94.1%
- viability, T/C (second compound 1 µM, first compound 1 µM): 112%
- viability, T/C (second compound 1 µM, first compound 3.16 µM): 100%
- viability, T/C (second compound 1 µM, first compound 10 µM): 81.3%
- viability, T/C [9]: 71.7%
- viability, T/C (second compound 3.16 µM, first compound 0.1 µM): 87.5%
- viability, T/C [10]: 85.5%
- viability, T/C (second compound 3.16 µM, first compound 1 µM): 96.9%
- viability, T/C (second compound 3.16 µM, first compound 3.16 µM): 96.7%
- viability, T/C (second compound 3.16 µM, first compound 10 µM): 73.5%
- viability, T/C [11]: 77.5%
- viability, T/C (second compound 10 µM, first compound 0.1 µM): 72.8%
- viability, T/C [12]: 72.5%
- viability, T/C (second compound 10 µM, first compound 1 µM): 70.6%
- viability, T/C (second compound 10 µM, first compound 3.16 µM): 101%
- viability, T/C (second compound 10 µM, first compound 10 µM): 70.6%

Structure (SMILES): CC[C@@]1(O)C(=O)OCc2c1cc1n(c2=O)Cc2cc3c(CN(C)C)c(O)ccc3nc2-1 + CN(C)c1ccc(Nc2c3ccc(NC(=O)CCN4CCCC4)cc3nc3cc(NC(=O)CCN4CCCC4)ccc23)cc1
- IC50 (second compound 0.0316 µM): 121 nM
- IC50 (second compound 0.1 µM): 93.7 nM
- IC50 (second compound 0.316 µM): 86.4 nM
- IC50 (second compound 1 µM): 96.7 nM
- IC50 (second compound 3.16 µM): 80.1 nM
- IC50 (second compound 10 µM): 79.3 nM
- viability, T/C [13]: 106%
- viability, T/C [14]: 118%
- viability, T/C [15]: 110%
- viability, T/C [1]: 86.7%
- viability, T/C [16]: 55.8%
- viability, T/C [2]: 28.2%
- viability, T/C [17]: 85.3%
- viability, T/C [18]: 108%
- viability, T/C [19]: 95.1%
- viability, T/C [3]: 82.2%
- viability, T/C [20]: 48.2%
- viability, T/C [4]: 41.2%
- viability, T/C [21]: 101%
- viability, T/C [22]: 98.5%
- viability, T/C [23]: 98.7%
- viability, T/C [5]: 89.4%
- viability, T/C [24]: 44.3%
- viability, T/C [6]: 28.6%
- viability, T/C [25]: 131%
- viability, T/C [26]: 91.6%
- viability, T/C [27]: 95.7%
- viability, T/C [7]: 82.8%
- viability, T/C [28]: 43.1%
- viability, T/C [8]: 24.9%
- viability, T/C [29]: 101%
- viability, T/C [30]: 101%
- viability, T/C [31]: 81.2%
- viability, T/C [9]: 76.9%
- viability, T/C [32]: 41.2%
- viability, T/C [10]: 26.5%
- viability, T/C [33]: 63.7%
- viability, T/C [34]: 62.3%
- viability, T/C [35]: 53.4%
- viability, T/C [11]: 63.5%
- viability, T/C [36]: 45.2%
- viability, T/C [12]: 31.4%

Structure (SMILES): CCc1c2c(nc3ccc(O)cc13)-c1cc3c(c(=O)n1C2)COC(=O)[C@]3(O)CC + CN(C)c1ccc(Nc2c3ccc(NC(=O)CCN4CCCC4)cc3nc3cc(NC(=O)CCN4CCCC4)ccc23)cc1
- IC50 (second compound 0.0316 µM): 3.29 nM
- IC50 (second compound 0.1 µM): 3.03 nM
- IC50 (second compound 0.316 µM): 2.54 nM
- IC50 (second compound 1 µM): 2.41 nM
- IC50 (second compound 3.16 µM): 2.28 nM
- IC50 (second compound 10 µM): 1.54 nM
- viability, T/C [13]: 74.6%
- viability, T/C [14]: 49.6%
- viability, T/C [15]: 32.4%
- viability, T/C [1]: 15.1%
- viability, T/C [16]: 11.6%
- viability, T/C [2]: 9.29%
- viability, T/C [17]: 80.2%
- viability, T/C [18]: 46.8%
- viability, T/C [19]: 31.7%
- viability, T/C [3]: 18%
- viability, T/C [20]: 9.85%
- viability, T/C [4]: 7.27%
- viability, T/C [21]: 84.6%
- viability, T/C [22]: 39.3%
- viability, T/C [23]: 25.3%
- viability, T/C [5]: 12.8%
- viability, T/C [24]: 11.6%
- viability, T/C [6]: 4.59%
- viability, T/C [25]: 89.1%
- viability, T/C [26]: 33.5%
- viability, T/C [27]: 25.4%
- viability, T/C [7]: 15.4%
- viability, T/C [28]: 9.81%
- viability, T/C [8]: 6.13%
- viability, T/C [29]: 75.5%
- viability, T/C [30]: 33.7%
- viability, T/C [31]: 30.4%
- viability, T/C [9]: 17.9%
- viability, T/C [32]: 7.36%
- viability, T/C [10]: 8.33%
- viability, T/C [33]: 56.9%
- viability, T/C [34]: 37.8%
- viability, T/C [35]: 25%
- viability, T/C [11]: 11.8%
- viability, T/C [36]: 5.13%
- viability, T/C [12]: 6.11%

— PubChem BioAssay AID2060495 (Molecular Pharmacology Branch, DTP, NCI, 2025)
